# Data taken from US11464749B2, “Bismuth-thiol compositions and methods of use” (Microbion Corporation, priority 2018, dated 2022).
# Like-named read-outs stand apart in the source and are kept apart here.
# How the values were obtained:
# S. pneumoniae = assay: Broth microdilution MIC (Example 11); details: Streptococcus pneumoniae
# Escherichia coli [1] = assay: Broth microdilution MIC (Example 12); details: Escherichia coli
# Klebsiella pneumoniae [2] = assay: Broth microdilution MIC (Example 11)
# E. faecalis = assay: Broth microdilution MIC (Example 11); details: Enterococcus faecalis, VRE, VRE Lev^R Cip^R Ery^R
# S. agalactiae = assay: Broth microdilution MIC (Example 11); details: Streptococcus agalactiae
# Acinetobacter baumannii [3] = assay: Broth microdilution MIC (Example 12); details: Acinetobacter baumannii
# [4] = system: Staphylococcus aureus (MRSA); assay: Broth microdilution MIC (Example 11)
# Klebsiella pneumoniae [5] = assay: Broth microdilution MIC (Example 12); details: Klebsiella pneumoniae
# Enterobacter cloacae = assay: Broth microdilution MIC (Example 11); details: ATCCBAA2468
# Escherichia coli [6] = assay: Broth microdilution MIC (Example 11)
# Acinetobacter baumannii [7] = assay: Broth microdilution MIC (Example 11); details: Acinetobacter baumannii
# S. pyogenes = assay: Broth microdilution MIC (Example 11); details: Streptococcus pyogenes
# [8] = system: Pseudomonas aeruginosa strain PA01; assay: Bacterial killing curves with and without CF patient sputum; design: time to sterilization below the limit of detection: dose or concentration left out as unconfirmed
# Pseudomonas aeruginosa = assay: Broth microdilution MIC (Example 12); details: Pseudomonas aeruginosa
smiles,measurement,setting,value
"CC(S)C(C)S.[Bi] (stereo not shown) [BisBDT, bismuth-2,3-butanedithiol]",MIC,"S. pneumoniae; ATCC49619, S. pneumoniae MMX 6837 (ATCC 49619), QC",0.5 µg/mL
same,MIC,"S. pneumoniae; S. pneumoniae MMX 880, Lev^R SXT^R CC^R Ery^R Pen^R",0.5 µg/mL
same,MIC,"S. pneumoniae; S. pneumoniae MMX 937, Mem^R SXT^R CC^R Ery^R Pen^R",8 µg/mL
same,MIC,"S. pneumoniae; S. pneumoniae MMX 3959, CC^R Ery^R",1 µg/mL
same,MIC,"S. pneumoniae; S. pneumoniae MMX 5440, Mem^R SXT^R CC^R Ery^R Pen^R",0.5 µg/mL
same,MIC,"S. pneumoniae; S. pneumoniae MMX 5445, Mem^R SXT^R CC^R Ery^R Pen^R",0.5 µg/mL
same,MIC,"S. pneumoniae; S. pneumoniae MMX 8133, Mem^R SXT^R CC^R Ery^R Pen^R",0.5 µg/mL
same,MIC,"S. pneumoniae; read-out: MIC values, pneumococci incl. multi-drug resistant",0.5 to 8 µg/mL
same,MIC,"Escherichia coli [1]; ATCC25922, E. coli ATCC 25922, QC organism",1 µg/mL
same,MIC,"Escherichia coli [1]; ATCC35218, E. coli ATCC 35218, ESBL",1 µg/mL
same,MIC,"Escherichia coli [1]; ATCC35218, E. coli ATCC 35218, QC organism (Table 102)",1 µg/mL
same,MIC,"Escherichia coli [1]; ATCCBAA2471, E. coli ATCC BAA-2471, NDM",2 µg/mL
same,MIC,"Escherichia coli [1]; E. coli CDC 114, ESBL/KPC",2 µg/mL
same,MIC,"Escherichia coli [1]; E. coli CDC 118, ESBL/NDM",1 µg/mL
same,MIC,"Escherichia coli [1]; E. coli CDC 435, NDM",1 µg/mL
same,MIC,"Escherichia coli [1]; E. coli CDC 451, KPC",1 µg/mL
same,MIC,"Escherichia coli [1]; E. coli CDC 503, ESBL/NDM",2 µg/mL
same,MIC,"Escherichia coli [1]; E. coli MMX 5745, KPC",2 µg/mL
same,MIC,"Escherichia coli [1]; E. coli MMX 5755, ESBL",2 µg/mL
same,MIC,"Escherichia coli [1]; E. coli MMX 5756, ESBL",1 µg/mL
same,MIC,"Escherichia coli [1]; E. coli MMX 5758, ESBL",1 µg/mL
same,MIC,"Klebsiella pneumoniae [2]; K. pneumoniae MMX 4622, KPC-2, MEM^R, CAZ^R",1 µg/mL
same,MIC,"Klebsiella pneumoniae [2]; K. pneumoniae MMX 4623, KPC-2, MEM^R, CAZ^R, GM^R",0.5 µg/mL
same,MIC,"Klebsiella pneumoniae [2]; K. pneumoniae MMX 4653, KPC-3, Lev^R, MEM^R, CAZ^R",2 µg/mL
same,MIC,"Klebsiella pneumoniae [2]; K. pneumoniae MMX 4683, KPC-2, Lev^R, MEM^R, CAZ^R",1 µg/mL
same,MIC,"Klebsiella pneumoniae [2]; K. pneumoniae MMX 4684, ESBL, MEM^R",2 µg/mL
same,MIC,"Klebsiella pneumoniae [2]; K. pneumoniae MMX 4685, ESBL, Lev^R, MEM^R, CAZ^R",1 µg/mL
same,MIC,"Klebsiella pneumoniae [2]; K. pneumoniae MMX 4694, KPC-3, Lev^R, MEM^R, CAZ^R",1 µg/mL
same,MIC,"Klebsiella pneumoniae [2]; K. pneumoniae MMX 5979, NDM-1, Lev^R, MEM^R, CAZ^R, Gm^R",1 µg/mL
same,MIC,E. faecalis; E. faecalis MMX 8960,0.5 µg/mL
same,MIC,E. faecalis; E. faecalis MMX 8961,0.25 µg/mL
same,MIC,E. faecalis; E. faecalis MMX 8962,0.25 µg/mL
same,MIC,"S. agalactiae; S. agalactiae MMX 3741, ERY^R CC^R",0.25 µg/mL
same,MIC,"S. agalactiae; S. agalactiae MMX 3743, ERY^R CC^R",0.25 µg/mL
same,MIC,"S. agalactiae; S. agalactiae MMX 4077, ERY^R CC^R",0.25 µg/mL
same,MIC,"S. agalactiae; S. agalactiae MMX 4079, ERY^R CC^R Pen^R MEM^R",0.5 µg/mL
same,MIC,"S. agalactiae; S. agalactiae MMX 4086, ERY^R CC^R",0.25 µg/mL
same,MIC,"Acinetobacter baumannii [3]; A. baumannii CDC 273, ESBL/OXA",0.5 µg/mL
same,MIC,"Acinetobacter baumannii [3]; A. baumannii CDC 274, ESBL/OXA",0.5 µg/mL
same,MIC,"Acinetobacter baumannii [3]; A. baumannii CDC 275, ESBL/OXA",0.5 µg/mL
same,MIC,"Acinetobacter baumannii [3]; A. baumannii CDC 277, ESBL/OXA",1 µg/mL
same,MIC,"Acinetobacter baumannii [3]; A. baumannii CDC 284, ESBL/OXA",1 µg/mL
same,MIC,"Acinetobacter baumannii [3]; A. baumannii CDC 307, OXA",0.5 µg/mL
same,MIC,"Acinetobacter baumannii [3]; A. baumannii CDC 308, ESBL/OXA",0.5 µg/mL
same,MIC,"Acinetobacter baumannii [3]; A. baumannii CDC 311, OXA",0.5 µg/mL
same,MIC,"Acinetobacter baumannii [3]; A. baumannii CDC 312, OXA",0.5 µg/mL
same,MIC,"Acinetobacter baumannii [3]; A. baumannii CDC 313, ESBL/OXA",0.5 µg/mL
same,MIC,"Acinetobacter baumannii [3]; NCTC13304, A. baumannii NCTC 13304, OXA",0.5 µg/mL
same,MIC,[4]; ATCC29213 / MRSA / MSSA,≤ 0.06 µg/mL
same,MIC,[4]; MRSA,≤ 0.06 µg/mL
same,MIC,"[4]; MRSA, read-out: MIC values",< 0.06 µg/mL
same,MIC,"Klebsiella pneumoniae [5]; ATCCBAA1705, K. pneumoniae ATCC BAA-1705, ESBL/KPC",1 µg/mL
same,MIC,"Klebsiella pneumoniae [5]; ATCCBAA1705, K. pneumoniae ATCC BAA-1705, QC organism (Table 102)",1 µg/mL
same,MIC,"Klebsiella pneumoniae [5]; K. pneumoniae CDC 112, KPC",2 µg/mL
same,MIC,"Klebsiella pneumoniae [5]; K. pneumoniae CDC 113, ESBL/KPC",1 µg/mL
same,MIC,"Klebsiella pneumoniae [5]; K. pneumoniae CDC 115, ESBL/KPC",2 µg/mL
same,MIC,"Klebsiella pneumoniae [5]; K. pneumoniae CDC 120, ESBL/KPC",2 µg/mL
same,MIC,"Klebsiella pneumoniae [5]; K. pneumoniae CDC 126, ESBL/KPC",2 µg/mL
same,MIC,"Klebsiella pneumoniae [5]; K. pneumoniae CDC 129, ESBL/KPC",4 µg/mL
same,MIC,"Klebsiella pneumoniae [5]; K. pneumoniae CDC 135, ESBL/VIM",4 µg/mL
same,MIC,"Klebsiella pneumoniae [5]; K. pneumoniae CDC 138, ESBL/NDM",2 µg/mL
same,MIC,"Klebsiella pneumoniae [5]; K. pneumoniae CDC 158, ESBL/NDM/OXA",2 µg/mL
same,MIC,"Klebsiella pneumoniae [5]; K. pneumoniae MMX 9029, ESBL",2 µg/mL
same,MIC,Enterobacter cloacae,2 µg/mL
same,MIC,"Escherichia coli [6]; ATCC25922, E. coli MMX 102 (ATCC 25922), QC",0.5 µg/mL
same,MIC,"Escherichia coli [6]; ATCCBAA2469, E. coli MMX 5980 (ATCC BAA-2469), NDM-1, Lev^R, MEM^R, CAZ^R, Gm^R",1 µg/mL
same,MIC,"Escherichia coli [6]; E. coli MMX 8423, ESBL, Lev^R, CAZ^R, Gm^R",1 µg/mL
same,MIC,"Escherichia coli [6]; E. coli MMX 8424, ESBL, CAZ^R",0.5 µg/mL
same,MIC,"Escherichia coli [6]; E. coli MMX 8425, ESBL, Lev^R, CAZ^R, Gm^R",1 µg/mL
same,MIC,"Acinetobacter baumannii [7]; A. baumannii MMX 2592, MDR, Lev^R, Cip^R, MEM^R, CAZ^R, Gm^R",0.5 µg/mL
same,MIC,"Acinetobacter baumannii [7]; A. baumannii MMX 2593, MDR, Lev^R, Cip^R, MEM^R, CAZ^R, Gm^R",0.5 µg/mL
same,MIC,"Acinetobacter baumannii [7]; A. baumannii MMX 3372, MDR, Cip^R, MEM^I, CAZ^I",1 µg/mL
same,MIC,"Acinetobacter baumannii [7]; A. baumannii MMX 3373, Sensitive",0.5 µg/mL
same,MIC,"Acinetobacter baumannii [7]; NCTC13304, A. baumannii MMX 4651 (NCTC 13304), MDR, OXA-27, Lev^R, Cip^R, MEM^R, CAZ^R, Gm^I",0.5 µg/mL
same,MIC,"S. pyogenes; S. pyogenes MMX 3068, Ery^R",0.12 µg/mL
same,MIC,"S. pyogenes; S. pyogenes MMX 3820, ERY^R CLI^R",0.5 µg/mL
same,MIC,"S. pyogenes; S. pyogenes MMX 3919, ERY^R",0.03 µg/mL
same,MIC,"S. pyogenes; S. pyogenes MMX 3929, ERY^R CC^R",0.5 µg/mL
same,MIC,"S. pyogenes; S. pyogenes MMX 5091, ERY^R CC^R",1 µg/mL
same,bactericidal activity against PA01,[8]; 0.1 μg/mL,not bactericidal
same,effect of CF patient sputum on bactericidal activity,[8]; 10% CF patient sputum,partially inhibited
same,time to sterilization below the limit of detection,[8]; with and without sputum,≤ 5 h
same,MIC,"Pseudomonas aeruginosa; ATCC27853, P. aeruginosa ATCC 27853, QC organism",1 µg/mL
same,MIC,"Pseudomonas aeruginosa; P. aeruginosa CDC 230, VIM/OXA",2 µg/mL
same,MIC,"Pseudomonas aeruginosa; P. aeruginosa CDC 231, KPC/OXA",2 µg/mL
same,MIC,"Pseudomonas aeruginosa; P. aeruginosa CDC 241, IMP/OXA",8 µg/mL
same,MIC,"Pseudomonas aeruginosa; P. aeruginosa CDC 246, NDM/OXA",2 µg/mL
same,MIC,"Pseudomonas aeruginosa; P. aeruginosa CDC 250, NDM/OXA",2 µg/mL
same,MIC,"Pseudomonas aeruginosa; P. aeruginosa CDC 356, KPC",1 µg/mL
same,MIC,"Pseudomonas aeruginosa; P. aeruginosa CDC 439, IMP",1 µg/mL
same,MIC,"Pseudomonas aeruginosa; P. aeruginosa CDC 444, VIM",1 µg/mL
same,MIC,"Pseudomonas aeruginosa; P. aeruginosa CDC 457, VIM",2 µg/mL
same,MIC,"Pseudomonas aeruginosa; P. aeruginosa CDC 516, KPC/AmpC",1 µg/mL
same,MIC,"Pseudomonas aeruginosa; P. aeruginosa CDC 518, KPC/AmpC",1 µg/mL
